From US11980645B2, “Bile acids and use in disease treatment” (The Regents of the University of California, priority 2019, dated 2024)
pEC50: −log10 of the molar value.

Assays:
[1] = test system: human fecal batch culture; assay: Incubation with actively growing human fecal batch culture (metabolism by microbiota); assay type: in vitro ADME; conditions: 10 μM bile acid, 24 h
Description: FIGS. […]. Distribution and metabolism of novel conjugated bile acids. FIG. 9a) Molecular network of SPF duodenum MS/MS data and synthesized amino acid conjugated bile acids. LC-MS/MS data from synthetic standards was networked with murine samples and spectral matching through molecular networking is indicated by node greyscale. Mirror plots showing the alignment between the murine and standards are shown. Nodes shaped as arrowheads had hits in the GNPS libraries and node size is scaled to the spectral count. Tauro=Taurocholic acid. These experiments were repeated twice. FIG. 9b) 3D-molecular cartography of the mean abundance of the newly discovered conjugates mapped onto a 3D-rendered model of the murine GI tract as a heatmap according to the greyscale. Organs are labeled as described in FIG. 1. FIG. 9c) Molecular network of GF and SPF portal and peripheral blood conjugated bile acids. Nodes are colored by source as either GF and SPF or portal/peripheral blood. Arrowhead nodes represent known compounds in the GNPS spectral database, circular nodes represent unknowns. The annotations are through spectral matches against reference libraries (level 2 or 3^3). FIG. 9d) Mean area under curve abundance and standard deviations of bile acids of interest during incubation with an actively growing batch human fecal culture for 24 h (n=3). FIG. 9e) Molecular network of novel conjugated bile acids after incubation in a human fecal batch culture experiment. Each node represents a unique MS/MS spectrum and arrowhead shaped nodes indicate known spectra in the GNPS database. The nodes are greyscale by their retention time according to the legend and the mass shift between nodes are mapped onto the edge representing the cosine connection between related spectra. The H2 mass shift representing oxidation of the novel conjugates is shown. FIG. 9f) Mean ion intensity and standard deviations of the dehydrogenated forms of Phe-chol, Tyr-chol and Leu-chol through the 24 h batch fecal culture incubation (n=3).
Fecal Culture Bioreactor Inoculation. A 4 g stool sample was resuspended in 40 mL modified yeast casitone fatty acids media (mYCFA, DMSZ recipe) with 0.25% Antifoam B Silicon Emulsion (Baker) in a vinyl anaerobic chamber (Coy). The resuspension was centrifuged at 500× g for 5 minutes to pellet solids. The supernatant was decanted through a sterile […] filter. The filtrate was centrifuged at 4450× g for 10 minutes to pellet cells. The supernatant was discarded, and the pellet was resuspended in 40 mL mYCFA. The resuspension was drawn into a 60 mL syringe and injected into a 500 mL vessel of an Infors Multifors 2 bioreactor. The chemostat process parameters was modified from a previous process developed in^26. The chemostat volume parameters were; 400 mL culture volume, 24-hour retention rate, 50 mL/min nitrogen, stirrer at 250 rpm, and 37° C. temperature. […] 15 μL stocks were added to 12 mL mYCFA. After 11 days of continuous culturing, 24 mL bioreactor culture was withdrawn and transferred to the anaerobic chamber. 3 mL culture was added to the 12 mL mYCFA aliquots with the bile acids, for a total volume of 15 mL and final concentration of 10 μM bile acid. The cultures were vortexed and split into three 5 mL aliquots. At time 0 (blanks for each bile acid), 1, 3, 6, 12 and 24 hours, 0.1 mL aliquots were removed from the samples for metabolomics and 16S rRNA gene sequencing. […]

[2] = LC-MS/MS screen of murine portal and peripheral blood for conjugated bile acids
Description: Portal and peripheral blood was collected from additional SPF (n=4) and GF (n=6) mice and screened for the presence of conjugated bile acids.
Bile Acids in Murine Portal and Peripheral Blood. An additional 4 SPF and 6 GF female mice of the same strain analyzed for the initial study on the microbial metabolome were raised for analysis of blood. Portal blood and peripheral blood were sampled as described in the methods section and analyzed with the same LC-MS/MS protocols as the original animals.

[3] = test system: FXR effector genes Fgf15, Shp, Cyp7a1, Cyp8b1; assay: Bile acid gavage of mice, RT-qPCR of downstream FXR effector genes in ileum and liver; conditions: for Fgf15 expression in the intestine, increase / Shp expression in the intestine, increase: oral gavage 500 mg/kg in corn oil
Description: The gene expression of Fgf15 and Shp in the ileum and Shp, Cyp8b1 and Cyp7a1 in the liver of mice gavaged with bile acids of interest were analyzed using quantitative reverse transcriptase-PCR analysis. The expression levels were normalized to the cellular housekeeping gene ribosomal phosphoprotein PO (36B4).
Bile acid Gavage of Mice. Eight-week-old Male C57BL/6J mice (Jackson Laboratory) were acclimated for 14 days and housed in groups of two throughout the duration of the experiment to mitigate cage effects. Mice were then dosed 2 times (24 hour) or 4 times (72 hour) (t=0 hr, t=24 hr, t=48 hr, t=72 hr) by oral gavage with either a mock control of corn oil without bile acids, or corn oil infused Tyr-chol (500 mg/kg body weight), Leu-chol (500 mg/kg body weight), cholic acid (500 mg/kg body weight) or the control FXR agonist GW4064 (10 mg/kg body weight). Starting 3 hours after the last gavage (t=75 hr, 72 hour treatment or t=25, 24 hour treatment), mice were euthanized by CO2 asphyxiation and samples were collected within a 6 hour period and snap frozen in a liquid nitrogen bath and stored at −80° C. prior to analysis. […] Ileum and liver samples were used for qPCR.
RT-qPCR Analysis of Downstream FXR Gene Expression. Mouse liver and ileum segments were directly homogenized in TRIzol and total RNA isolated. cDNA was synthesized from 1 μg of DNase-treated total RNA using Bio-Rad iScript Reverse Transcription supermix (#1708841) and mRNA levels of Fgf15, Shp, Cyp7b1 and Cyp7a1 were quantified by quantitative PCR with Advanced Universal SyBr Green Supermix (Bio-Rad, cat #725271). All samples were run in technical triplicates and relative mRNA levels were calculated by using the standard curve methodology and normalized to 36B4.

human FXR = molecular target: T1, human FXR (Homo sapiens, UniProt Q96RI1); assay: FXR luciferase reporter assay in HEK-293 cells; conditions: for human FXR agonism: HEK-293 luciferase reporter
T1 sequence (Q96RI1 1-486): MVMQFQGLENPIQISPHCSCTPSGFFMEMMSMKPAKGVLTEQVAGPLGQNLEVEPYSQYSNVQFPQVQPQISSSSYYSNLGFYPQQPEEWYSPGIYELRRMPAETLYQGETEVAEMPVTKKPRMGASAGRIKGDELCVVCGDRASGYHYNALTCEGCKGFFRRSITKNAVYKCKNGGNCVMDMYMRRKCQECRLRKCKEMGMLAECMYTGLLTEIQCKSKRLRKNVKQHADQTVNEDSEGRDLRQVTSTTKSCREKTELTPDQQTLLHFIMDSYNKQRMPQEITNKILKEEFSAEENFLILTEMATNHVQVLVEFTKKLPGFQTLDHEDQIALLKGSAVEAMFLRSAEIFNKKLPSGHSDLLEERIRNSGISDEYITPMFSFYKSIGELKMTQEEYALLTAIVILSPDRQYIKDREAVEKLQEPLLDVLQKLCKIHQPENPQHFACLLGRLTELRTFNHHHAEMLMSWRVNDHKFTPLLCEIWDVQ
T1 sequence (P19793 1-462 partner): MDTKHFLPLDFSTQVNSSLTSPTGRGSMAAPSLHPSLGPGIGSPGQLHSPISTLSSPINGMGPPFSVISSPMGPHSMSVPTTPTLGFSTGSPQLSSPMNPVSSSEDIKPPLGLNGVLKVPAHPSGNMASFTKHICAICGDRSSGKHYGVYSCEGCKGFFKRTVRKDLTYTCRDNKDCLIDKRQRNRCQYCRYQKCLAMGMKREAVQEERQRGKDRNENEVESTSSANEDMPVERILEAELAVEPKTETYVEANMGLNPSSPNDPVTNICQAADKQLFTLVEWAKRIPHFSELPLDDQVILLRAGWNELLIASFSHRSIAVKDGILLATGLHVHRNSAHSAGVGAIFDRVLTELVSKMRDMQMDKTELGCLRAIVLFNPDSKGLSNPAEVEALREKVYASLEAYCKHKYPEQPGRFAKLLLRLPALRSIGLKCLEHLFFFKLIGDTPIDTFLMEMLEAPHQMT
Description: To assess the ability of the novel bile acids from the invention to affect human FXR signaling, a luciferase reporter assay was established in HEK-293 embryonic kidney cells^39.
Human kidney cell line HeK-293 was obtained from American Type Culture Collection (ATCC CRL-1573, tested for Mycoplasma contamination every 6 months). These cells were chosen due to their high transfectability and low FXR expression which allows for a robust signal to noise ratio. These 293 cells were cultured in Dulbecco's modified Eagle's medium/F-12 (DMEM) supplemented with 10% (V/V heat-inactivated fetal calf serum (FBS) and 100 units/ml penicillin G and 100 μg/ml streptomycin. 10,000 cells were seeded per well in 96-well plates one day before transfection of plasmids. DNA was transiently transfected by Lipofectamine 2000 and Opti-MDM in fasting state. The ratio of plasmid used in per well were 50 ng of FXR response element (FXRE)/luciferase reporter plasmid, 10 ng of pCMV-3flag-FXR (human) plasmid, 10 ng of pCMV-RXR (human) plasmid, and 5 ng of Renilla luciferase reporter plasmid as internal standard for transfection efficiency. […] Cells were harvested 24 hrs later and lysed with passive lysis buffer (Promega). Luciferase activities were measured by the Dual-Luciferase Reporter (DLR™) Assay kit and read by Luminometer (Perkin Elmer). The final Luciferase activities were normalized by dividing the relative light units by Renilla luciferase activity. Statistical analyses were performed using Prism software. Each dosage was done in 12 replicates.

SMILES	deconjugation by the microbiota [1]	presence in portal and peripheral blood ([2]; mouse, in vivo)	liver Cyp7a1 expression vs corn oil control (significance) ([3]; gavage, 24 hrs)	liver Cyp8b1 expression vs corn oil control (significance) ([3]; gavage, 24 hrs)	ileum Fgf15 signaling vs corn oil control (significance) ([3]; gavage, 72 hrs)	ileum Shp signaling vs corn oil control (significance) ([3]; gavage, 72 hrs)	liver Cyp7a1 expression vs corn oil control (significance) ([3]; gavage, 72 hrs)	liver Cyp8b1 expression vs corn oil control (significance) ([3]; gavage, 72 hrs)	further results
C[C@H](CCC(=O)NCC(=O)O)[C@H]1CC[C@H]2[C@@H]3[C@H](O)C[C@@H]4C[C@H](O)CC[C@]4(C)[C@H]3C[C@H](O)[C@]12C [GCA, glycocholic acid, reference compound]	deconjugation readily occurred	present	–	–	–	–	–	–	oxidation of the cholate core by microbial enzymes [1]: no concurrent oxidation
CC(C)c1onc(-c2c(Cl)cccc2Cl)c1COc1ccc(/C=C/c2cccc(C(=O)O)c2)c(Cl)c1 [GW4064, reference compound]	–	–	–	–	–	–	–	–	ileum Shp expression vs corn oil control (significance) ([3]; gavage, 24 hr): significance was also reached
CC(C)C[C@H](NC(=O)CC[C@@H](C)[C@H]1CC[C@H]2[C@@H]3[C@H](O)C[C@@H]4C[C@H](O)CC[C@]4(C)[C@H]3C[C@H](O)[C@]12C)C(=O)O [Leu-chol, leucocholic acid]	not deconjugated	not found	significantly reduced	significantly reduced	significantly increased	significantly increased	significantly reduced	significantly reduced	liver Shp expression vs corn oil control (significance) ([3]; gavage, 72 hrs): significantly elevated
C[C@H](CCC(=O)N[C@@H](Cc1ccccc1)C(=O)O)[C@H]1CC[C@H]2[C@@H]3[C@H](O)C[C@@H]4C[C@H](O)CC[C@]4(C)[C@H]3C[C@H](O)[C@]12C [Phe-chol, phenylalanocholic acid]	not deconjugated	not found	–	–	–	–	–	–	pEC50 (human FXR): 5.35; human FXR agonism (human FXR): strong human FXR agonists
C[C@H](CCC(=O)NCCS(=O)(=O)O)[C@H]1CC[C@H]2[C@@H]3[C@H](O)C[C@@H]4C[C@H](O)CC[C@]4(C)[C@H]3C[C@H](O)[C@]12C [TCA, Taurocholic acid, reference compound]	–	–	–	–	–	–	–	–	presence in portal and peripheral blood ([2]; SPF (n=4) and GF (n=6) mice, endogenous): present
C[C@H](CCC(=O)N[C@@H](Cc1ccc(O)cc1)C(=O)O)[C@H]1CC[C@H]2[C@@H]3[C@H](O)C[C@@H]4C[C@H](O)CC[C@]4(C)[C@H]3C[C@H](O)[C@]12C [Tyr-chol, tyrosocholic acid]	not deconjugated	not found	significantly reduced	significantly reduced	significantly increased	significantly increased	significantly reduced	significantly reduced	pEC50 (human FXR): 6.85; human FXR agonism (human FXR): strong human FXR agonists; ileum Fgf15 expression vs corn oil control (significance) ([3]; gavage, 24 hr): significantly elevated; Shp expression in the liver ([3]; gavage, 24 hrs): did not change detectably; liver Cyp7a1 expression ([3]; gavage, 24 hrs): 9 % of control; liver Cyp8b1 expression ([3]; gavage, 24 hrs): 69 % of control; Shp expression in the liver, increase ([3]; gavage, 72 hrs): 2.3 fold; liver Shp expression vs corn oil control (significance) ([3]; gavage, 72 hrs): significantly elevated; liver Cyp7a1 expression ([3]; gavage, 72 hrs (4 gavages)): 8 % of control; liver Cyp8b1 expression ([3]; gavage, 72 hrs (4 gavages)): 2 % of control; Fgf15 expression in the intestine, increase ([3]; 24 hrs): 12.2 fold; Shp expression in the intestine, increase ([3]; 24 hrs): 13.3 fold; Fgf15 expression in the intestine, increase ([3]; 72 hrs (4 gavages)): 6.2 fold; Shp expression in the intestine, increase ([3]; 72 hrs (4 gavages)): 9.3 fold
C[C@H](CCC(=O)O)[C@H]1CC[C@H]2[C@@H]3[C@H](O)C[C@@H]4C[C@H](O)CC[C@]4(C)[C@H]3C[C@H](O)[C@]12C [cholic acid, reference compound]	–	–	significantly reduced	significantly reduced	significantly increased	significantly increased	significantly reduced	significantly reduced	ileum Shp expression vs corn oil control (significance) ([3]; gavage, 24 hr): significance was also reached
